*1 amine or outer side, *2 acyl side, *3 side chain or, on linkers, in order; H or OH if unused. Where a SMILES comes first, the peptide text is derived from it. Side-chain parts run from the residue outwards. [ ]: non-standard residue; d: D form. The star is where a group is joined. C20 diacid = O=C(O)CCCCCCCCCCCCCCCCCCC(=O)*; γGlu = O=C(O)[C@H](CCC(=O)[*:2])N[*:1]; AEEA = NCCOCCOCC(=O)O; Aib = CC(C)(N)C(=O)O
Target: T1, human GLP-2 receptor (Homo sapiens, UniProt O95838, D470N)
T1 construct: expressed in transfected cells
T1 sequence (O95838 1-553 D470N): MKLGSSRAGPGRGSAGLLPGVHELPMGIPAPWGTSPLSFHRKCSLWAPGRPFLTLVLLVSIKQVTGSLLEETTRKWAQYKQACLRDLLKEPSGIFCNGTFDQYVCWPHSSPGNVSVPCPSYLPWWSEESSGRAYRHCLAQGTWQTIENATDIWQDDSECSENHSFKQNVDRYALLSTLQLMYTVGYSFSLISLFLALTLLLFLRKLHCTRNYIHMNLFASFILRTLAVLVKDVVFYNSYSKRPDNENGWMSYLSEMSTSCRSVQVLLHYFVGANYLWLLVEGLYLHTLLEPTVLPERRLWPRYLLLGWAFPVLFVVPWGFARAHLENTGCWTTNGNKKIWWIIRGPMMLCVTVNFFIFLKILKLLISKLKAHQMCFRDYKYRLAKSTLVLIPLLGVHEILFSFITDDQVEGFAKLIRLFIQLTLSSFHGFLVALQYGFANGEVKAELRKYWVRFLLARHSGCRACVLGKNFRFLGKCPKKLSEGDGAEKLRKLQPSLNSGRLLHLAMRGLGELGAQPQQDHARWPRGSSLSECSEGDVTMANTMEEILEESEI
Assay: GLP-2 receptor potency assay (cAMP ALPHASCREEN, HEK293 cells stably expressing GLP-2 R)
Format: cell-based
Settings: cAMP response, HEK293 cells expressing human GLP-2 R; read-out: EC50 GLP-2
From the text: One useful in vitro assay for measuring GLP-1 and GLP-2 receptor activity is quantitation of cAMP, i.e. 3′-5′-cyclic adenosine monophosphate, which is a second messenger essential in many biological processes, and one of the most ubiquitous mechanisms for regulating cellular functions.
For subcloning into a mammalian expression vector, primers for subcloning were obtained from DNA-Technology, Risskov, Denmark. The 5′ and 3′ primers used for the PCR reaction include terminal restriction sites for cloning and the context of the 5′ primer is modified to a Kozak consensus without changing the sequence of the product encoded by the ORF. […] The generated PCR product was purified using GFX PCR and Gel band purification kit, digested with restriction enzymes and cloned into the mammalian expression vector using Rapid DNA Ligation Kit. Ligation reaction was transformed to XL10 Gold Ultracompetent cells and colonies were picked for DNA production using ENDOFREE® Plasmid maxi kit. Subsequent sequence analysis was conducted by MWG Eurofins, Germany.
HEK293 cells were transfected using the LIPOFECTAMINE® PLUS transfection method. The day before transfection, HEK293 cells were seeded in two T75 flasks at a density of 2×10^6 cells/T75 flask in cell culturing medium without antibiotics. On the day of transfection, cells were washed with 1× DPBS and medium was replaced with OPTI-MEM© to a volume of 5 mL/T75 flask before addition of LIPOFECTAMINE®-plasmid complexes were added gently and drop wise to the cells in T75 flasks and replaced with growth medium after 3 hours and again to growth medium supplemented with 500 μg/mL G418 after 24 hours. Following 4 weeks in G418 selection, clones were picked and tested in a functional GLP-2 receptor potency assay as described below.
The cAMP ALPHASCREEN® assay from Perkin Elmer was used to quantitate the cAMP response to activation of the GLP1 and GLP2 receptor, respectively. […] Data from test compounds eliciting an increase in the intracellular level of cAMP were normalized relative to the positive and negative control (vehicle) to calculate the EC50 and maximal response from the concentration response curve.

Compound	EC50 [pM]
CC[C@H](C)[C@H](NC(=O)[C@H](Cc1ccccc1)NC(=O)[C@H](CC(=O)O)NC(=O)[C@H](CCCNC(=N)N)NC(=O)[C@H](C)NC(=O)[C@H](C)NC(=O)[C@H](CCCCN)NC(=O)[C@H](CCCCNC(=O)COCCOCCNC(=O)[C@H](CCCCN)NC(=O)[C@H](CCC(=O)O)NC(=O)[C@H](CCCCN)NC(=O)CC[C@H](NC(=O)CCCCCCCCCCCCCCCCCCC(=O)O)C(=O)O)NC(=O)[C@H](CC(=O)O)NC(=O)[C@H](CC(C)C)NC(=O)[C@@H](NC(=O)[C@@H](NC(=O)[C@H](C)NC(=O)[C@H](CC(C)C)NC(=O)[C@H](CCC(=O)O)NC(=O)[C@H](CO)NC(=O)[C@@H](NC(=O)[C@H](Cc1ccccc1)NC(=O)[C@H](CO)NC(=O)CNC(=O)[C@H](CCC(=O)O)NC(=O)C(C)(C)NC(=O)[C@@H](N)Cc1c[nH]cn1)[C@@H](C)O)[C@@H](C)O)[C@@H](C)CC)C(=O)N[C@@H](C)C(=O)N[C@@H](Cc1c[nH]c2ccccc12)C(=O)N[C@@H](CC(C)C)C(=O)N[C@H](C(=O)N[C@@H](CCC(=O)O)C(=O)N[C@@H](Cc1c[nH]cn1)C(=O)N[C@@H](CCCCN)C(=O)N[C@H](C(=O)N[C@H](C(=O)N[C@@H](CC(=O)O)C(=O)O)[C@@H](C)O)[C@@H](C)CC)[C@@H](C)CC [Compound 59] (HELM PEPTIDE1{H.[Aib].E.G.S.F.T.S.E.L.A.T.I.L.D.K.K.A.A.R.D.F.I.A.W.L.I.E.H.K.I.T.D}|PEPTIDE2{[O=C(O)CCCCCCCCCCCCCCCCCCC(=O)[*:2]].[gGlu].K.E.K.[O=C(COCCOCCN[*:1])[*:2]]}$PEPTIDE1,PEPTIDE2,16:R3-6:R2$$$V2.0)	110
CC[C@H](C)[C@H](NC(=O)[C@H](Cc1ccccc1)NC(=O)[C@H](CC(=O)O)NC(=O)[C@H](CCCNC(=N)N)NC(=O)[C@H](C)NC(=O)[C@H](C)NC(=O)[C@H](CCCCN)NC(=O)[C@H](CCCCNC(=O)COCCOCCNC(=O)COCCOCCNC(=O)CC[C@H](NC(=O)CCCCCCCCCCCCCCCCCCC(=O)O)C(=O)O)NC(=O)[C@H](CC(=O)O)NC(=O)[C@H](CC(C)C)NC(=O)[C@@H](NC(=O)[C@@H](NC(=O)[C@H](C)NC(=O)[C@H](CC(C)C)NC(=O)[C@H](CCC(=O)O)NC(=O)[C@H](CO)NC(=O)[C@@H](NC(=O)[C@H](Cc1ccccc1)NC(=O)[C@H](CO)NC(=O)CNC(=O)[C@H](CCC(=O)O)NC(=O)C(C)(C)NC(=O)[C@@H](N)Cc1c[nH]cn1)[C@@H](C)O)[C@@H](C)O)[C@@H](C)CC)C(=O)N[C@@H](C)C(=O)N[C@@H](Cc1c[nH]c2ccccc12)C(=O)N[C@@H](CC(C)C)C(=O)N[C@H](C(=O)N[C@@H](CCC(=O)O)C(=O)N[C@@H](Cc1c[nH]cn1)C(=O)N[C@@H](CCCCN)C(=O)N[C@H](C(=O)N[C@H](C(=O)N[C@@H](CC(=O)O)C(=O)O)[C@@H](C)O)[C@@H](C)CC)[C@@H](C)CC [Compound 43] (H-H[Aib]EGSFTSELATILDK([AEEA-AEEA-γGlu-C20 diacid])KAARDFIAWLIEHKITD-OH)	150

Now from value to molecule:

EC50 [pM]	Compound
350	CC[C@H](C)[C@H](NC(=O)[C@H](Cc1ccccc1)NC(=O)[C@H](CC(=O)O)NC(=O)[C@H](CCCNC(=N)N)NC(=O)[C@H](C)NC(=O)[C@H](C)NC(=O)[C@H](CCC(=O)O)NC(=O)[C@H](CCCCNC(=O)CC[C@H](NC(=O)CCCCCCCCCCCCCCCCC(=O)O)C(=O)O)NC(=O)[C@H](CC(=O)O)NC(=O)[C@H](CC(C)C)NC(=O)[C@@H](NC(=O)[C@@H](NC(=O)[C@H](C)NC(=O)[C@H](CC(C)C)NC(=O)[C@H](CCC(=O)O)NC(=O)[C@H](CO)NC(=O)[C@H](CO)NC(=O)[C@H](Cc1ccccc1)NC(=O)[C@@H](NC(=O)CNC(=O)[C@H](CCC(=O)O)NC(=O)C(C)(C)NC(=O)[C@@H](N)Cc1c[nH]cn1)[C@@H](C)O)[C@@H](C)O)[C@@H](C)CC)C(=O)N[C@@H](C)C(=O)N[C@@H](Cc1c[nH]c2ccccc12)C(=O)N[C@@H](CC(C)C)C(=O)N[C@H](C(=O)N[C@@H](CCC(=O)O)C(=O)N[C@@H](Cc1c[nH]cn1)C(=O)N[C@@H](CCCCN)C(=O)N[C@H](C(=O)N[C@H](C(=O)N[C@@H](CC(=O)O)C(=O)O)[C@@H](C)O)[C@@H](C)CC)[C@@H](C)CC [Compound 1] (HELM PEPTIDE1{H.[Aib].E.G.T.F.S.S.E.L.A.T.I.L.D.K.E.A.A.R.D.F.I.A.W.L.I.E.H.K.I.T.D}|PEPTIDE2{[O=C(O)CCCCCCCCCCCCCCCCC(=O)[*:2]].[gGlu]}$PEPTIDE1,PEPTIDE2,16:R3-2:R2$$$V2.0)
83	CC[C@H](C)[C@H](NC(=O)[C@H](Cc1ccccc1)NC(=O)[C@H](CC(=O)O)NC(=O)[C@H](CCCNC(=N)N)NC(=O)[C@H](C)NC(=O)[C@H](C)NC(=O)[C@H](CCC(N)=O)NC(=O)[C@H](CCCCNC(=O)COCCOCCNC(=O)[C@H](CCCCN)NC(=O)[C@H](CCC(=O)O)NC(=O)[C@H](CCCCN)NC(=O)CC[C@H](NC(=O)CCCCCCCCCCCCCCCCCCC(=O)O)C(=O)O)NC(=O)[C@H](CC(=O)O)NC(=O)[C@H](CC(C)C)NC(=O)[C@@H](NC(=O)[C@@H](NC(=O)[C@H](C)NC(=O)[C@H](CC(C)C)NC(=O)[C@H](CCC(=O)O)NC(=O)[C@H](CO)NC(=O)[C@@H](NC(=O)[C@H](Cc1ccccc1)NC(=O)[C@H](CO)NC(=O)CNC(=O)[C@H](CCC(=O)O)NC(=O)C(C)(C)NC(=O)[C@@H](N)Cc1c[nH]cn1)[C@@H](C)O)[C@@H](C)O)[C@@H](C)CC)C(=O)N[C@@H](C)C(=O)N[C@@H](Cc1c[nH]c2ccccc12)C(=O)N[C@@H](CC(C)C)C(=O)N[C@H](C(=O)N[C@@H](CCC(=O)O)C(=O)N[C@@H](Cc1c[nH]cn1)C(=O)N[C@@H](CCCCN)C(=O)N[C@H](C(=O)N[C@H](C(=O)N[C@@H](CC(=O)O)C(=O)O)[C@@H](C)O)[C@@H](C)CC)[C@@H](C)CC [Compound 57] (HELM PEPTIDE1{H.[Aib].E.G.S.F.T.S.E.L.A.T.I.L.D.K.Q.A.A.R.D.F.I.A.W.L.I.E.H.K.I.T.D}|PEPTIDE2{[O=C(O)CCCCCCCCCCCCCCCCCCC(=O)[*:2]].[gGlu].K.E.K.[O=C(COCCOCCN[*:1])[*:2]]}$PEPTIDE1,PEPTIDE2,16:R3-6:R2$$$V2.0)
180	CC[C@H](C)[C@H](NC(=O)[C@H](Cc1ccccc1)NC(=O)[C@H](CC(=O)O)NC(=O)[C@H](CCCCNC(=O)COCCOCCNC(=O)COCCOCCNC(=O)[C@H](CCCCN)NC(=O)[C@H](CCC(=O)O)NC(=O)[C@H](CCCCN)NC(=O)CC[C@H](NC(=O)CCCCCCCCCCCCCCCCCCC(=O)O)C(=O)O)NC(=O)[C@H](C)NC(=O)[C@H](C)NC(=O)[C@H](CCC(N)=O)NC(=O)[C@H](CCC(=O)O)NC(=O)[C@H](CC(=O)O)NC(=O)[C@H](CC(C)C)NC(=O)[C@@H](NC(=O)[C@@H](NC(=O)[C@H](C)NC(=O)[C@H](CC(C)C)NC(=O)[C@H](CCC(=O)O)NC(=O)[C@H](CO)NC(=O)[C@@H](NC(=O)[C@H](Cc1ccccc1)NC(=O)[C@H](CO)NC(=O)CNC(=O)[C@H](CCC(=O)O)NC(=O)C(C)(C)NC(=O)[C@@H](N)Cc1c[nH]cn1)[C@@H](C)O)[C@@H](C)O)[C@@H](C)CC)C(=O)N[C@@H](C)C(=O)N[C@@H](Cc1c[nH]c2ccccc12)C(=O)N[C@@H](CC(C)C)C(=O)N[C@H](C(=O)N[C@@H](CCC(=O)O)C(=O)N[C@@H](Cc1c[nH]cn1)C(=O)N[C@@H](CCCCN)C(=O)N[C@H](C(=O)N[C@H](C(=O)N[C@@H](CC(=O)O)C(=O)O)[C@@H](C)O)[C@@H](C)CC)[C@@H](C)CC [Compound 66] (H-H[Aib]EGSFTSELATILDEQAAK([AEEA-AEEA-Lys-Glu-Lys-γGlu-C20 diacid])DFIAWLIEHKITD-OH)

Source: patent US11395847B2, “Acylated GLP-1/GLP-2 dual agonists” (Zealand Pharma A/S, priority 2016, dated 2022)
